From US10526314B2, “Hydroxyalkyl-substituted heteroaryltriazole derivatives and uses thereof” (BAYER AKTIENGESELLSCHAFT, priority 2016, dated 2020) come the findings set out here.

SMILES strings stand for the structures.

One test addresses T1, human V1a receptor (Homo sapiens, UniProt P37288).
T1 construct: expressed in transfected cells; host or cells: CHO K1 (ATCC), also stably transfected with a modified aequorin
Briefly: Cellular in vitro assay for determining vasopressin receptor activity (V1a, aequorin luminescence). The following applies: for IC50: CHO cell line transfected with human V1a receptor, [Arg8]-vasopressin at EC50 concentration, read-out: IC50 hV1a; for ratio IC50 hV2/hV1a: selectivity ratio IC50 hV2 / IC50 hV1a. The class given is cell-based. The protocol:
(§1) B-1. Cellular In Vitro Assay for Determining Vasopressin Receptor Activity
(§2) The identification of agonists and antagonists of the V1a and V2 vasopressin receptors from humans, rats and dogs as well as the quantification of the activity of the compounds of the invention is carried out using recombinant cell lines. These cell lines originally derive from a hamster's ovary epithelial cell (Chinese Hamster Ovary, CHO K1, ATCC: American Type Culture Collection, Manassas, Va. 20108, USA). The test cell lines constitutively express the human, rat or dog V1a or V2 receptors. In case of the Gαq-coupled V1a receptors, cells are also stably transfected with a modified form of the calcium-sensitive photoproteins aequorin (human and rat V1a) or obelin (dog V1a), which, after reconstitution with the cofactor coelenterazine, emit light when there are increases in free calcium concentrations [Rizzuto R, Simpson A W, Brini M, Pozzan T, Nature 358, 325-327 (1992); Illarionov B A, Bondar V S, Illarionova V A, Vysotski E S, Gene 153 (2), 273-274 (1995)]. The resulting vasopressin receptor cells react to stimulation of the recombinantly expressed V1a receptors by intracellular release of calcium ions, which can be quantified by the resulting photoprotein luminescence. The Gs-coupled V2 receptors are stably transfected into cell lines expressing the gene for firefly luciferase under control of a CRE-responsible promoter. Activation of V2 receptors induces the activation of the CRE-responsive promoter via cAMP increase, thereby inducing the expression of firefly luciferase. The light emitted by photoproteins of V1a cell lines as well as the light emitted by firefly luciferase of V2 cell lines corresponds to the activation or inhibition of the respective vasopressin receptor. The bioluminescence of the cell lines is detected using a suitable luminometer [Milligan G, Marshall F, Rees S, Trends in Pharmacological Sciences 17, 235-237 (1996)].
Vasopressin V1a Receptor Cell Lines:
On the day before the assay, the cells are plated out in culture medium (DMEM/F12, 2% FCS, 2 mM glutamine, 10 mM HEPES, 5 μg/ml coelenterazine) in 384-well microtiter plates and kept in a cell incubator (96% humidity, 5% v/v CO2, 37° C.). On the day of the assay, test compounds in various concentrations are placed for 10 minutes in the wells of the microtiter plate before the agonist [Arg^8]-vasopressin at EC50 concentration is added. The resulting light signal is measured immediately in a luminometer.
(§3) Table 1A below lists individual IC50 values for the compounds of the invention (including racemic mixtures as well as separated enantiomers) that were obtained from cell lines transfected with the human V1a or V2 receptor: […]

A further test has as its target T2, human V2 receptor (Homo sapiens, UniProt P30518).
T2 construct: expressed in transfected cells; host or cells: CHO K1 (ATCC) expressing firefly luciferase under a CRE-responsive promoter
Kind of test: Cellular in vitro assay for determining vasopressin receptor activity (V2, CRE-luciferase). The test is classed as cell-based. As to conditions: CHO cell line transfected with human V2 receptor; [Arg8]-vasopressin at EC50 concentration; read-out: IC50 hV2. The protocol:
as §1, §2
Vasopressin V2 Receptor Cell Lines:
On the day before the assay, the cells are plated out in culture medium (DMEM/F12, 2% FCS, 2 mM glutamine, 10 mM HEPES) in 384-well microtiter plates and kept in a cell incubator (96% humidity, 5% v/v CO2, 37° C.). On the day of the assay, test compounds in various concentrations and the agonist [Arg^8]-vasopressin at EC50 concentration are added together to the wells, and plates are incubated for 3 hours in a cell incubator. Upon addition of the cell lysis reagent Triton™ and the substrate luciferin, luminescence of firefly luciferase is measured in a luminometer.
as §3

T1 sequence (P37288 whole entry): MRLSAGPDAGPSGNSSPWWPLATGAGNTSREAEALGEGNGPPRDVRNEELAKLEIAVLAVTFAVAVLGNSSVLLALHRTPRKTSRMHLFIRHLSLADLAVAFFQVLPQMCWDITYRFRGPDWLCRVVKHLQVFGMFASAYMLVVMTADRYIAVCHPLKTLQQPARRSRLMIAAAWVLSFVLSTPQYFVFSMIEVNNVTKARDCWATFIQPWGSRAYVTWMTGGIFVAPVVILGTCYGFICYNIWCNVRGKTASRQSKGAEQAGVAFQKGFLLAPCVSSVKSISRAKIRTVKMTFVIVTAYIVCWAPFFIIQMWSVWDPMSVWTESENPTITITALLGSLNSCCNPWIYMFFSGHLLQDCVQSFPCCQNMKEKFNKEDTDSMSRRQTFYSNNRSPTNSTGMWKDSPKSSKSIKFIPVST
T2 sequence (P30518 whole entry): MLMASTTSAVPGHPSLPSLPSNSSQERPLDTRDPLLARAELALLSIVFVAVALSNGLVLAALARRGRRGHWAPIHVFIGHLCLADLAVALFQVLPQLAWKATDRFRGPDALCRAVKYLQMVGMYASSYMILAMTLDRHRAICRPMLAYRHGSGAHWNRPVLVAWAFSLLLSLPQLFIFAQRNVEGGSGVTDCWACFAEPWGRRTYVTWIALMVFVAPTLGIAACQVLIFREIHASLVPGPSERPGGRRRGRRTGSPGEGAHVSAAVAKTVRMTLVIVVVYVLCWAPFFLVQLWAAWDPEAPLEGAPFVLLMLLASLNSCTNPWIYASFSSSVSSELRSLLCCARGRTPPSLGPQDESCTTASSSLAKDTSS

As to `CC(O)c1nc(Cn2nc(-c3ccc(Cl)cc3)n(C[C@H](O)C(F)(F)F)c2=O)nn1-c1cccnc1` (mixture of isomers) [Example 24], at human V1a receptor, the IC50 (usually the concentration that inhibits the measured activity by half) came out at 49.1 nM and the “ratio IC50 hV2/hV1a” value was 15.8. At human V2 receptor, the IC50 worked out at 773 nM.
On to `CC(O)c1nc(Cn2nc(-c3ccc(Cl)cc3)n(C[C@H](O)C(F)(F)F)c2=O)nn1-c1cncc(Cl)c1` (mixture of isomers) [Example 27, 5-(4-Chlorophenyl)-2-({1-(5-chloropyridin-3-yl)-5-(1hydroxyethyl)-1H-1,2,4triazol-3-yl}methyl)-4-[(2S)-3,3,3-trifluoro-2-hydroxypropyl]-2,4-dihydro-3H-1,2,4-triazol-3-one], for which the IC50 was 12.3 nM on human V1a receptor and 18.7 nM at human V2 receptor. In addition, at human V1a receptor, the “ratio IC50 hV2/hV1a” value was 1.5.
The like results for `CC(O)c1nc(Cn2nc(-c3ccc(Cl)cc3)n(C[C@H](O)C(F)(F)F)c2=O)nn1-c1cccnc1` (single isomer, unassigned) [Example 25] were, in that order, 90.8 nM, 240 nM and 2.6.
The like results for `CC(O)c1nc(Cn2nc(-c3ccc(Cl)cc3)n(C[C@H](O)C(F)(F)F)c2=O)nn1-c1cccnc1` (single isomer, unassigned) [Example 26] were, in that order, 34.3 nM, 325 nM and 9.5.
With `CC(O)c1nc(Cn2nc(-c3ccc(Cl)cc3)n(C[C@H](O)C(F)(F)F)c2=O)nn1-c1cncc(Cl)c1` (single isomer, unassigned) [Example 28], on human V1a receptor, the IC50 worked out at 20.6 nM and the “ratio IC50 hV2/hV1a” value is listed as 2.5. In addition, the IC50 on human V2 receptor stood at 51.7 nM.
Consider `CC(O)c1nc(Cn2nc(-c3ccc(Cl)cc3)n(C[C@H](O)C(F)(F)F)c2=O)nn1-c1cncc(Cl)c1` (single isomer, unassigned) [Example 29], for which, at human V1a receptor, the IC50 is 7.71 nM and the “ratio IC50 hV2/hV1a” value was determined as 2.0. Moreover, the IC50 on human V2 receptor stood at 15.2 nM.
The like results for `C[C@@H](O)c1nc(Cn2nc(-c3ccc(Cl)cc3)n(C[C@H](O)C(F)(F)F)c2=O)nn1-c1cnccc1Cl` [Example 1, 5-(4-Chlorophenyl)-2-({1-(4-chloropyridin-3-yl)-5-[(1R)-1-hydroxyethyl]-1H-1,2,4-triazol-3-yl}methyl)-4-[(2S)-3,3,3-trifluoro-2-hydroxypropyl]-2,4-dihydro-3H-1,2,4-triazol-3-one] were, in that order, 0.49 nM, 32.6 and 16 nM.
With `C[C@H](O)c1nc(Cn2nc(-c3ccc(Cl)cc3)n(C[C@H](O)C(F)(F)F)c2=O)nn1-c1cnccc1Cl` [Example 2, 5-(4-Chlorophenyl)-2-({1-(4-chloropyridin-3yl)-5-[(1S)-1-hydroxyethyl]-1H-1,2,4-triazol-3-yl}methyl)-4-[(2S)-3,3,3-trifluoro-2-hydroxypropyl]-2,4-dihydro-3H-1,2,4-triazol-3-one], on human V1a receptor, the IC50 was 0.53 nM and the “ratio IC50 hV2/hV1a” value is 10.7. Besides, at human V2 receptor, the IC50 amounted to 5.65 nM.
The like results for `C[C@H](O)c1nc(Cn2nc(-c3ccc(Cl)cc3)n(C[C@H](O)C(F)(F)F)c2=O)nn1-c1ncccc1Cl` [Example 3, 5-(4-Chlorophenyl)-2-({1-(3-chloropyridin-2-yl)-5-[(1S)-1-hydroxyethyl]-1H-1,2,4-triazol-3-yl}methyl)-4-[(2S)-3,3,3-trifluoro-2-hydroxypropyl]-2,4-dihydro-3H-1,2,4-triazol-3-one] were, in that order, 0.57 nM, 14.2 and 8.07 nM.
The like results for `C[C@@H](O)c1nc(Cn2nc(-c3ccc(Cl)cc3)n(C[C@H](O)C(F)(F)F)c2=O)nn1-c1c(Cl)cncc1Cl` [Example 4, 5-(4-Chlorophenyl)-2-({1-(3,5-dichloropyridin-4-yl)-5-[(1R)-1-hydroxyethyl]-1H-1,2,4-triazol-3-yl}methyl)-4-[(2S)-3,3,3-trifluoro-2-hydroxypropyl]-2,4-dihydro-3H-1,2,4-triazol-3-one] were, in that order, 1.3 nM, 6.7 and 8.65 nM.
Regarding `C[C@@H](O)c1nc(Cn2nc(-c3ccc(Cl)cc3)n(C[C@H](O)C(F)(F)F)c2=O)nn1-c1ncccc1Cl` [Example 5, 5-(4-Chlorophenyl)-2-({1-(3-chloropyridin-2-yl)-5-[(1R)-1-hydroxyethyl]-1H-1,2,4-triazol-3-yl}methyl)-4-[(2S)-3,3,3-trifluoro-2-hydroxypropyl]-2,4-dihydro-3H-1,2,4-triazol-3-one], the IC50 was 1.35 nM at human V1a receptor and 27 nM on human V2 receptor. Also, the “ratio IC50 hV2/hV1a” value on human V1a receptor is 20.0.
The like results for `C[C@@H](O)c1nc(Cn2nc(-c3ccc(Cl)cc3)n(C[C@H](O)C(F)(F)F)c2=O)nn1-c1ccncc1Cl` [Example 6, 5-(4-Chlorophenyl)-2-({1-(3-chloropyridin-4-yl)-5-[(1R)-1-hydroxyethyl]-1H-1,2,4-triazol-3-yl}methyl)-4-[(2S)-3,3,3-trifluoro-2-hydroxypropyl]-2,4-dihydro-3H-1,2,4-triazol-3-one] were, in that order, 2.35 nM, 40.3 nM and 17.2.
As for `C[C@H](O)c1nc(Cn2nc(-c3ccc(Cl)cc3)n(C[C@H](O)C(F)(F)F)c2=O)nn1-c1ccncc1Cl` [Example 7, 5-(4-Chlorophenyl)-2-({1-(3-chloropyridin-4-yl)-5-[(1S)-1-hydroxyethyl]-1H-1,2,4-triazol-3-yl}methyl)-4-[(2S)-3,3,3-trifluoro-2-hydroxypropyl]-2,4-dihydro-3H-1,2,4-triazol-3-one], the figures for the IC50 on human V1a receptor and at human V2 receptor were 3 nM and 16 nM, respectively. Also, the “ratio IC50 hV2/hV1a” value at human V1a receptor turned out to be 5.3.
In the case of `COc1cccnc1-n1nc(Cn2nc(-c3ccc(Cl)cc3)n(C[C@H](O)C(F)(F)F)c2=O)nc1[C@H](C)O` [Example 8, 5-(4-Chlorophenyl)-2-({5-[(1S)-1-hydroxyethyl]-1-(3-methoxypyridin-2-yl)-1H-1,2,4-triazol-3-yl}methyl)-4-[(2S)-3,3,3-trifluoro-2-hydroxypropyl]-2,4-dihydro-3H-1,2,4-triazol-3-one], on human V1a receptor, the half-maximal inhibitory concentration (IC50) was 3.65 nM and the “ratio IC50 hV2/hV1a” value stood at 2.6. Besides, on human V2 receptor, the IC50 turned out to be 9.4 nM.
The like results for `C[C@H](O)c1nc(Cn2nc(-c3ccc(Cl)cc3)n(C[C@H](O)C(F)(F)F)c2=O)nn1-c1c(Cl)cncc1Cl` [Example 9, 5-(4-Chlorophenyl)-2-({1-(3,5-dichloropyridin-4-yl)-5-[(1S)-1-hydroxyethyl]-1H-1,2,4-triazol-3-yl}methyl)-4-[(2S)-3,3,3-trifluoro-2-hydroxypropyl]-2,4-dihydro-3H-1,2,4-triazol-3-one] were, in that order, 4.13 nM, 5.9 and 24.5 nM.
The like results for `C[C@H](O)c1nc(Cn2nc(-c3ccc(Cl)cc3)n(C[C@H](O)C(F)(F)F)c2=O)nn1-c1nccs1` [Example 10, 5-(4-Chlorophenyl)-2-({5-[(1S)-1-hydroxyethyl]-1-(1,3-thiazol-2-yl)-1H-1,2,4-triazol-3-yl}methyl)-4-[(2S)-3,3,3-trifluoro-2-hydroxypropyl]-2,4-dihydro-3H-1,2,4-triazol-3-one] were, in that order, 4.25 nM, 24.7 and 105 nM.
